One assay concerns the target T1, BLK (Homo sapiens, UniProt P51451).
T1 construct: purchased ThermoFisher Scientific (contract research organization)
Put plainly: FRET-based Z'-Lyte kinase assay. As to conditions: read-out: Biochemical Inhibition, IC50. The source says:
(§1) To determine the biochemical selectivity of HM71224, we tested more than 85 kinases using the fluorescence resonance energy transfer (FRET) method.

The next assay deals with T2, BMX (Homo sapiens, UniProt P51813).
T2 construct: purchased ThermoFisher Scientific (contract research organization)
Put plainly: FRET-based Z'-Lyte kinase assay. As to conditions: read-out: Biochemical Inhibition, IC50.
Excerpt: as §1

For a further assay, the target named is T3, CSK (Homo sapiens, UniProt P41240).
T3 construct: purchased ThermoFisher Scientific (contract research organization)
As to the kind of experiment: FRET-based Z'-Lyte kinase assay. As to conditions: read-out: Biochemical Inhibition, IC50.
Excerpt: as §1

The target in a further assay is T4, ITK (Homo sapiens, UniProt Q08881).
T4 construct: purchased ThermoFisher Scientific (contract research organization)
As to the kind of experiment: FRET-based Z'-Lyte kinase assay. As to conditions: read-out: Biochemical Inhibition, IC50.
Excerpt: as §1

The target in the next assay is T5, LCK (Homo sapiens, UniProt P06239).
T5 construct: purchased ThermoFisher Scientific (contract research organization)
As to the kind of experiment: FRET-based Z'-Lyte kinase assay. The following applies: read-out: Biochemical Inhibition, IC50.
Excerpt: as §1

In a further assay the target is T6, LYN (Homo sapiens, UniProt P07948).
T6 construct: purchased ThermoFisher Scientific (contract research organization)
As to the kind of experiment: FRET-based Z'-Lyte kinase assay. The following applies: read-out: Biochemical Inhibition, IC50.
Excerpt: as §1

A further assay addresses T7, TEC (Homo sapiens, UniProt P42680).
T7 construct: purchased ThermoFisher Scientific (contract research organization)
Put plainly: FRET-based Z'-Lyte kinase assay. As to conditions: read-out: Biochemical Inhibition, IC50.
Excerpt: as §1

In another assay the target is T8, TXK (Homo sapiens, UniProt P42681).
T8 construct: purchased ThermoFisher Scientific (contract research organization)
Put plainly: FRET-based Z'-Lyte kinase assay. As to conditions: read-out: Biochemical Inhibition, IC50.
Excerpt: as §1

The next assay concerns the target T9, YES (Homo sapiens, UniProt P07947).
T9 construct: purchased ThermoFisher Scientific (contract research organization)
As to the kind of experiment: FRET-based Z'-Lyte kinase assay. The following applies: read-out: Biochemical Inhibition, IC50.
Excerpt: as §1

The subject of assay [1] is EGFR-overexpressed A431 cells. Put plainly: Cellular growth of EGFR-overexpressed A431 cells. The class given is cell-based.
The target in assay [2] is T10, BTK (Homo sapiens, UniProt Q06187). As to the kind of experiment: Btk occupancy in Ramos cells (biotinylated probe). The class given is cell-based. As to the method: After treatment with HM71224, cells were lysed and then incubated for 1 h with 1 μM of biotinylated probe (HM71224 derivative). The lysed cells were loaded into streptavidin-coated wells and then incubated with an anti-Btk antibody (1:1000; clone number D3H5, Cell signaling Technology, Danvers, MA, USA) for 1 h, followed by a secondary HRP-conjugated antibody (1:10000; EMD Millipore Corporation, Billerica, MA, USA) at room temperature for 1 h. After washing, 100 μL of colorimetric solution (R&D systems, Minneapolis, MN, USA) was added, and the reaction was stopped 30 minutes later by addition of 100 μL of sulfuric acid (0.2 moles/L). The plate was read with the absorbance reader at 450 nm.
To measure Btk occupancy by immunoprecipitation (IP), biotinylated HM71224 probes were preincubated with cell lysates for 1 h at 4 °C. Streptavidin-coated beads were then added, and the mixture was incubated overnight at 4 °C. Immunoblotting was then performed, and band density was measured using MultiGauge V3.0 software (FUJI FILM, Tokyo, Japan). Untreated biotinylated probes were set at 100 %.

Assay [3] has as its system phosphorylation of Btk and PLCγ2 in primary human B cells. Put plainly: BCR signaling in primary human B cells (immunoblot). As to conditions: BCR ligation. The class given is cell-based.
Procedure: Ramos cells or human B cells were pretreated with the indicated concentrations of HM71224 and then stimulated with anti-IgM F(ab’)2 (Southern Biotech, Birmingham, AL, USA) for 10 minutes on ice. Cells were then lysed in RIPA buffer (Sigma-Aldrich), and the proteins were separated by SDS-PAGE (Bio-Rad Laboratories, Hercules, CA, USA), transferred onto polyvinylidene fluoride (PVDF) membranes, and immunoblotted with anti-pBtk Y223 (catalog number 5082; Cell Signaling Technology, Danvers, MA, USA), anti-pPLCγ2 Y759 (catalog number 3874; Cell Signaling Technology), anti-pPLCγ2 Y1217 (Cell Signaling Technology), anti-pERK T202/204 (197G2; Cell Signaling Technology), anti-Btk (C82B8; Cell Signal Technology), anti-PLCγ2 (catalog number 3872; Cell Signal Technology), anti-ERK1/2 (3A7; Cell Signaling Technology), and anti-GAPDH (FL-335; Santa Cruz Biotechnology, Santa Cruz, TX, USA) antibodies.
For assay [4], the system named is activated primary human B cells. As to the kind of experiment: Surface activation marker expression by activated B cells (flow cytometry). The class given is cell-based. The following applies: B-cell, anti-IgM F(ab')2 for 24 h. On the procedure:
Human PBMCs (10^6 cells/mL) were allowed to rest at 37 °C for 2 h. […] To examine changes in the expression of surface activation markers, cells were stained with anti-CD3-FITC (SK7; BD Biosciences), anti-CD19-PE (HIB19; BD Biosciences), anti-CD40-PE-Cy7 (5C3; BD Biosciences), anti-CD69-V450 (FN50; BD Biosciences), and anti-CD86-PerCP-Cy5.5 (2331 (FUN-1); BD Biosciences) antibodies.
For orientation: Flow cytometry measures light scatter and fluorescence of single cells or particles in a stream.

For assay [5], the system named is phosphorylation of Btk, PLC-γ2, Erk. As to the kind of experiment: Phospho-flow cytometry of BCR-crosslinked human PBMCs. The class given is cell-based. As to conditions: anti-IgM F(ab')2. On the procedure:
For phospho-flow, B cells were activated by crosslinking their BCRs with anti-human IgM antibodies (10 μg/mL; BD Biosciences) for 10 minutes at 37 °C. Cells were then fixed with 2 % paraformaldehyde at 37 °C for 12 minutes, permeabilized, and stained with anti-CD3-FITC (SK7; BD Biosciences), anti-CD20-PerCP-Cy5.5 (H1; BD Biosciences), anti-pBtk (Y223)-Alexa647 (N35-86; BD Biosciences), anti-pPLCγ2 (Y759)-Alexa647 (K86-689.37; BD Biosciences), anti-pSTAT1 (Y701)-Alexa647 (4a; BD Biosciences), anti-pSTAT3 (Y705)-Alexa647 (4/P-STAT3; BD Biosciences), anti-pSTAT5 (Y694)-Alexa647 (47; BD Biosciences), and anti-pERK1/2 (T202/204)-Alexa647 (20A; BD Biosciences) antibodies. The cells were then washed and analyzed on an LSR II flow cytometer (BD Biosciences). Data were analyzed using FlowJo software, version 8.8 (Treestar, Ashland, OR, USA).

The test system of assay [6] is human plasmacytoid dendritic cells. As to the kind of experiment: Cytokine production by human PDCs stimulated with CpG ODN or LPS (ELISA). The class given is cell-based. The following applies: CpG ODN (TLR9 agonist), 1 μM, 48 h. (In general: In an ELISA, binding on a coated surface is turned into a signal by an enzyme label.)
Procedure: Human monocytes were stimulated with heat-inactivated ICs at 37 °C for 30 minutes in the presence of increasing concentrations of HM71224. Human PDCs were stimulated with lipopolysaccharide (LPS) or CpG ODN 2006 (ThermoFisher Scientific) for 48 h in the absence or presence of HM71224 (1 μM). The production of tumor necrosis factor (TNF)-α, interleukin (IL)-1β, and IL-6 was then measured using a commercial ELISA (R&D Systems). […] The levels of the indicated cytokines in the culture supernatant were then measured by ELISA at 5 h post stimulation. […] The levels of the indicated cytokines in the culture supernatant were then measured by ELISA at 48 h post stimulation.*P < 0.05, **P < 0.01, and ***P < 0.001 vs. no treatment. LPS lipopolysaccharide
The test system of another assay is human CD14+ monocytes. Put plainly: Osteoclast formation from human CD14+ cells (TRAP staining). The class given is cell-based. The following applies: Monocyte, 1000 nM. As to the method:
Isolated human CD14 cells (1 × 10^5 cells per well) were cultured in a 96-well plate at 37 °C in alpha-minimum essential medium (MEM) supplemented with 10 % FBS and 25 ng/mL M-CSF (Sigma-Aldrich) in the presence of increasing concentrations of HM71224. RANKL (100 ng/mL, Sigma-Aldrich) was added after 3 days. The medium was replaced every 3 days. On day 9, cells were fixed with 3 % formaldehyde and stained for tartrate-resistant acid phosphatase (TRAP) expression (Sigma-Aldrich). To drive osteoclast formation from bone morrow cells, BMMs (4 × 10^4 per well) were stimulated with 30 ng/mL M-CSF and 100 ng/mL RANKL in the presence of increasing concentrations of HM71224 for 4 days. TRAP+ cells with three or more nuclei were counted as osteoclasts.

In another assay the target is JAK3 (Homo sapiens, UniProt P52333). As to the kind of experiment: biochemical.
The target in assay [7] is T10, BTK. Put plainly: Kinome Binding Tree Spot analysis, Scan Max (DiscoveRx). More on the design: purchased DiscoveRx (Scan Max panel). The following applies: concentration of 2 μM.
For another assay, the target named is EGFR (Homo sapiens, UniProt P00533). Put plainly: Phosphorylation of EGFR in cells. The class given is cell-based. On the set-up: EGFR-overexpressing epidermoid carcinoma A431 cell line; endogenous in cells; host or cells: A431. As to conditions: cellular; read-out: IC50 on inhibiting EGFR phosphorylation.

Like-named read-outs stand apart in the source and are kept apart here. Some results are limits rather than exact numbers.

T10 sequence (Q06187 whole entry): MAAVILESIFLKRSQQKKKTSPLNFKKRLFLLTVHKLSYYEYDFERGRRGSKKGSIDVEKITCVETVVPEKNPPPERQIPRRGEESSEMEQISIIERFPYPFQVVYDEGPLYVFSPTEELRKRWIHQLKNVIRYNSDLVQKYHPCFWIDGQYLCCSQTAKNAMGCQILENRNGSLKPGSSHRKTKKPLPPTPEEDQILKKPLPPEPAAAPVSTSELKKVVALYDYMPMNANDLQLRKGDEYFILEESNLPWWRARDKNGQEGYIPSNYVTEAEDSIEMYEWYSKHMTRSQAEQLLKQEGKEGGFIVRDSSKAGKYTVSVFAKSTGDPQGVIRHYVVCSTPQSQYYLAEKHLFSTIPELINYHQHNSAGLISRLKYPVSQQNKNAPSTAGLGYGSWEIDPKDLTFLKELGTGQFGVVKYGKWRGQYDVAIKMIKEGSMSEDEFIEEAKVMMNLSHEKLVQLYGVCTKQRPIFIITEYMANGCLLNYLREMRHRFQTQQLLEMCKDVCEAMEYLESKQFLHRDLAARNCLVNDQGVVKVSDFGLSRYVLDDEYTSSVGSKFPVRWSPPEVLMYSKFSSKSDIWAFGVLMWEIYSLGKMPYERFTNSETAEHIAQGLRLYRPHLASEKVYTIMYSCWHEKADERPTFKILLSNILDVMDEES
T8 sequence (P42681 whole entry): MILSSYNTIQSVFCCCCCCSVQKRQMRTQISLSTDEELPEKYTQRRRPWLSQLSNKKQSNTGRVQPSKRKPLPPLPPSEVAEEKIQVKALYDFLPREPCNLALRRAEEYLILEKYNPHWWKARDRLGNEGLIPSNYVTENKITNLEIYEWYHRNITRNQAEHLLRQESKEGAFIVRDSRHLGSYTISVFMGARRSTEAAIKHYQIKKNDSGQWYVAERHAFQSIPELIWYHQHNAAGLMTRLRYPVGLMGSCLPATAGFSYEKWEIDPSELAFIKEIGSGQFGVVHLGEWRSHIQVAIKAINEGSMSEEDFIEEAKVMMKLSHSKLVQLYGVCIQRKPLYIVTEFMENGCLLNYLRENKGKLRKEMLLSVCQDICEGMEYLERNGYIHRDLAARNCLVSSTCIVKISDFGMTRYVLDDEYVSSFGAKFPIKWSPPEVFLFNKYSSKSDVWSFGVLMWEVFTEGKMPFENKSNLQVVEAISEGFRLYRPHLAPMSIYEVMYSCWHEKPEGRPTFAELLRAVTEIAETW
T3 sequence (P41240 whole entry): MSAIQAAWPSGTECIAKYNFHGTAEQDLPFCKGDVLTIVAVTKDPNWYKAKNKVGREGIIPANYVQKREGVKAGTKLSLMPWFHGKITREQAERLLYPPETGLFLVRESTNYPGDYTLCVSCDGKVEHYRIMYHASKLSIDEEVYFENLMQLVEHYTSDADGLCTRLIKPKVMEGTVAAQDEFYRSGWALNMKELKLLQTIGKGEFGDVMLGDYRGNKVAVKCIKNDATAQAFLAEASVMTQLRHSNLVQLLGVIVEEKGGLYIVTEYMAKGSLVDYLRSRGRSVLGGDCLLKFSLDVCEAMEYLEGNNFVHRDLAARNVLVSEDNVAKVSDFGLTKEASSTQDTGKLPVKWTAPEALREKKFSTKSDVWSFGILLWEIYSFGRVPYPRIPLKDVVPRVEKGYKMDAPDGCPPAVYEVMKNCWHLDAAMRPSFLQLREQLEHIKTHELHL
T2 sequence (P51813 whole entry): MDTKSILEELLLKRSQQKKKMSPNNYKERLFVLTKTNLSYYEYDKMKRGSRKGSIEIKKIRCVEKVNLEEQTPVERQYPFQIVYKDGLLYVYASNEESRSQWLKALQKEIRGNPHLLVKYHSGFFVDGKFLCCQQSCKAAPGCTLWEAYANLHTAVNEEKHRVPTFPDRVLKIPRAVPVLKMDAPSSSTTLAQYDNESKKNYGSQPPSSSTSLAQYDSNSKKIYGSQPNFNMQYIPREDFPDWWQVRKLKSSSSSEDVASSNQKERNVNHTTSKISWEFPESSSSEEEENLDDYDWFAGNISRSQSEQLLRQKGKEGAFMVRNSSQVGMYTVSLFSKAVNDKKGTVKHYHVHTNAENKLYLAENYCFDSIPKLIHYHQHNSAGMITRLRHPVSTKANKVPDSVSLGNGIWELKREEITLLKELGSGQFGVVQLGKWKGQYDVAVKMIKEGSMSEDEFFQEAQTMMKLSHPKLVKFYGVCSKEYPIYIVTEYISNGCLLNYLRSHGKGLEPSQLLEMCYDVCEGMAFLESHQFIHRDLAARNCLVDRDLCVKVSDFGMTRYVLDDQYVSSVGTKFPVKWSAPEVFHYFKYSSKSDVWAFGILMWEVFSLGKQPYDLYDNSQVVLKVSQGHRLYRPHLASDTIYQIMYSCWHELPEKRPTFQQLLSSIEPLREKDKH
T6 sequence (P07948 whole entry): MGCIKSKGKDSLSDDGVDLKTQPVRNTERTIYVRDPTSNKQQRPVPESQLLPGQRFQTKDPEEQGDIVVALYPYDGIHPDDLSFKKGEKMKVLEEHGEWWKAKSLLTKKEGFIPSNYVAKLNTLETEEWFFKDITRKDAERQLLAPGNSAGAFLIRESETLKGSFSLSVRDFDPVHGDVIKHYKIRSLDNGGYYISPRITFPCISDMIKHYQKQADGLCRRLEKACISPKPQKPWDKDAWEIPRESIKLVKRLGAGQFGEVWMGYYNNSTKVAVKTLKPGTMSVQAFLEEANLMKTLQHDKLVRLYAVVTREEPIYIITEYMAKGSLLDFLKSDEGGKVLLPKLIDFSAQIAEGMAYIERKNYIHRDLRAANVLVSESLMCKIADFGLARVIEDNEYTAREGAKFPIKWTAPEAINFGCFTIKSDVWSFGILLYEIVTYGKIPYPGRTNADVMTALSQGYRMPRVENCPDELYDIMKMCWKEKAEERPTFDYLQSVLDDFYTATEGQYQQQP
T1 sequence (P51451 whole entry): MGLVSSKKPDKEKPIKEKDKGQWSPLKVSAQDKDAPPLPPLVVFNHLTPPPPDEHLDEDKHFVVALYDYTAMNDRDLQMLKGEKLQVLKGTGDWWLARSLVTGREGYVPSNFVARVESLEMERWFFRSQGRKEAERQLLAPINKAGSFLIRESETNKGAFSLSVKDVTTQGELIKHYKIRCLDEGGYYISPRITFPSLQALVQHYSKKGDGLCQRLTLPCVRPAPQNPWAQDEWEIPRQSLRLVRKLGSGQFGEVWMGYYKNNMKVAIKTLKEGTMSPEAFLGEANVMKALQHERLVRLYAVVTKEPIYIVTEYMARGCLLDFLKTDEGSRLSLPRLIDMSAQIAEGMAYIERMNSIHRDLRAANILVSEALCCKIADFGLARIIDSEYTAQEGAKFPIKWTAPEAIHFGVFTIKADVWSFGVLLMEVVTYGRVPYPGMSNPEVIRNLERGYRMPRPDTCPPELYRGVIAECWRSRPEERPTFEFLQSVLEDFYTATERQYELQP
T4 sequence (Q08881 whole entry): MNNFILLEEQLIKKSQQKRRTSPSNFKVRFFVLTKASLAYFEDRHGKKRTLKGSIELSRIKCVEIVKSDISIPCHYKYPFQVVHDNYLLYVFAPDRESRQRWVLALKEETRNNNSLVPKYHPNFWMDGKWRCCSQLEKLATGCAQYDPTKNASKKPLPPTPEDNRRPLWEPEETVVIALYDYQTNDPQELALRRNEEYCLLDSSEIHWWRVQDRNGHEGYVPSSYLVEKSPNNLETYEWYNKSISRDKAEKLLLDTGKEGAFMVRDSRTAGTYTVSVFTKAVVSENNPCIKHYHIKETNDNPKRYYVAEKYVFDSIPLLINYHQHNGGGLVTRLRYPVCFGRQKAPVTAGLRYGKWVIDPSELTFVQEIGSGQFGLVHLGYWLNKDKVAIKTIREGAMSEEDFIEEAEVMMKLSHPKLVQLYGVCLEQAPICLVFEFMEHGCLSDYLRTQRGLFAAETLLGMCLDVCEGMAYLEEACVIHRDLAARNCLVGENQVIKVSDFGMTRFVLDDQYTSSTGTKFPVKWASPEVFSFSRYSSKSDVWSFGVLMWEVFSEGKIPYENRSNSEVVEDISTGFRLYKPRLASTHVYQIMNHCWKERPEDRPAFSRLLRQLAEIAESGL
T9 sequence (P07947 whole entry): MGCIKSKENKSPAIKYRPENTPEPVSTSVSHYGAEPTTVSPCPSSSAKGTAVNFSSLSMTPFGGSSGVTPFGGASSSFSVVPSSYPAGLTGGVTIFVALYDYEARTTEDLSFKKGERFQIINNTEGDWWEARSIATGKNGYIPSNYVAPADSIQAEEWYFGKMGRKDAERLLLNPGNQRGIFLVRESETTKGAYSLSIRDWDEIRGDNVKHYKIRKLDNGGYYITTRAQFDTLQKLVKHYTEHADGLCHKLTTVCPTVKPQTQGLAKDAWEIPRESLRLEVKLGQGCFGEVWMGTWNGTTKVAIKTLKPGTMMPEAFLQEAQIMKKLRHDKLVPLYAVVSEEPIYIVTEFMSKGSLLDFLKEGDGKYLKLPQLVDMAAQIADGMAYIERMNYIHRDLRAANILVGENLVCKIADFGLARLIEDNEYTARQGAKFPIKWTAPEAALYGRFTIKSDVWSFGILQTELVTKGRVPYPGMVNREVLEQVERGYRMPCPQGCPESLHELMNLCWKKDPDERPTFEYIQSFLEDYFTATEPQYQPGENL
T5 sequence (P06239 whole entry): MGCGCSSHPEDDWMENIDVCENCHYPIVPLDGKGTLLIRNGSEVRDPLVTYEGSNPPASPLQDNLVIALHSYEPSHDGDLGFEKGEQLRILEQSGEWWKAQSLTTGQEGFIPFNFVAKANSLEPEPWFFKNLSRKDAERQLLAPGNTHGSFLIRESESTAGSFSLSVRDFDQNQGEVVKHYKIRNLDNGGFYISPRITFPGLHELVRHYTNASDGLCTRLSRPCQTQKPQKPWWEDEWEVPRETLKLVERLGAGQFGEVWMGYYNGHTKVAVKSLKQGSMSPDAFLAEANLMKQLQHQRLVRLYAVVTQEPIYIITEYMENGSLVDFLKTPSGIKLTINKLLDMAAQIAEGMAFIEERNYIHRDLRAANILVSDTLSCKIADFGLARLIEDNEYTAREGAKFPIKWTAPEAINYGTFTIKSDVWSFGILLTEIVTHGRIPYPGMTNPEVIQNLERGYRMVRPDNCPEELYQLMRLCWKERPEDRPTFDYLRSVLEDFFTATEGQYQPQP

In the case of `C=CC(=O)Nc1cccc(Oc2nc(Nc3ccc(N4CCN(C)CC4)cc3)nc3ccoc23)c1` [HM71224], the IC50 at BLK was 13.5 nM; at BMX, 0.64 nM; at CSK, > 1000 nM; at ITK, 103 nM; on LCK it was > 1000 nM; on LYN it was > 1000 nM. Moreover, the IC50 on TEC turned out to be 4.57 nM; on TXK, 4.62 nM; on YES, 562 nM; in assay [4] (read-out: IC50, surface expression of CD40), 4.2 nM; in assay [4] (read-out: IC50, surface expression of CD69), 4.2 nM; in assay [4] (read-out: IC50, surface expression of CD86), 7.7 nM. The IC50 stood at 14.6 nM against JAK3 and 800 nM at EGFR. Further, the GI50 was 1000 nM in assay [1] (Homo sapiens, A-431, read-out: GI50, concentration to inhibit 50 % of cellular growth, EGFR-overexpressed A431 cells) and > 1000 nM in assay [1] (read-out: GI50, concentration to inhibit 50 % of cellular growth, EGFR-overexpressed A431 cells). For the same compound, the Btk molecules occupied entry was “approximately 90%” at BTK [2] (10 nM) and ~100% on BTK [2] (100 nM). The “Phosphorylation of Btk and PLCγ2” value in [3] was “effectively inhibited”. In [5], the “Phosphorylation of Btk and Erk by phospho-flow” value is “inhibited phosphorylation of BTK, and p-Erk in a dose-dependent manner”. The “CpG-mediated production of TNF-α and IL-6” value in [6] is “inhibited CpG-mediated cytokine production”. For the same compound, the inhibition at 1 µM in the assay on human CD14+ monocytes was ~50%. Moreover, at BTK [7], the Kinome binding selectivity entry was “selectively bound to Btk”.

For orientation: IC50 means the midpoint of a concentration-inhibition curve. In general, inhibition refers to the percentage by which the read-out fell short of the control.

The record behind these values is paper PMC4835877, “HM71224, a novel Bruton’s tyrosine kinase inhibitor, suppresses B cell and monocyte activation and ameliorates arthritis in a mouse model: a potential drug for rheumatoid arthritis” (Arthritis Research & Therapy, 2016).
